These compounds were tested against T1, MS (Pseudomonas aeruginosa, UniProt Q9I636) (assay: DTNB detection of coenzyme A at […] nm).
T1 construct: gene glcB
Type: biochemical

T1 sequence (Q9I636 whole entry): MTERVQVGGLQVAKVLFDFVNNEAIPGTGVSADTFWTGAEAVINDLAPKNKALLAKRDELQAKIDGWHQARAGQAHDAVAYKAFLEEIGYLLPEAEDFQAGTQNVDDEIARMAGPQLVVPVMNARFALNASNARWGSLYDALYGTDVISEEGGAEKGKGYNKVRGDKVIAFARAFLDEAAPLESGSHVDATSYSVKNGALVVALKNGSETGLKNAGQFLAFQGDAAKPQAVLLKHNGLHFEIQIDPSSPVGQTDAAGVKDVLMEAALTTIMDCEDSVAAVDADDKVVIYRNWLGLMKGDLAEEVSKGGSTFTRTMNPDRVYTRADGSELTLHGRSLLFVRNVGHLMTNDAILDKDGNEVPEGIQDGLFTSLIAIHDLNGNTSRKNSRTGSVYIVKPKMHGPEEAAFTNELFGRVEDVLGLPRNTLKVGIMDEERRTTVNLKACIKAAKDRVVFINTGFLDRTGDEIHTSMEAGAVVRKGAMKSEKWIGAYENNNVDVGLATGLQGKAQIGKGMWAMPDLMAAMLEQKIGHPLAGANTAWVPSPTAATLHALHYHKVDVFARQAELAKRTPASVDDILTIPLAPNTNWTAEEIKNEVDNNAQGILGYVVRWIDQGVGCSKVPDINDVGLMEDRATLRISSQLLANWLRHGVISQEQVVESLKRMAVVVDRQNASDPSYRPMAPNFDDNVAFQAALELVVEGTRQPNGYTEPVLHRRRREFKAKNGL

Structure (SMILES)	IC50
COc1ccccc1N1CCN(CCCNC(=O)C(Cc2ccc(F)c(F)c2)C(C)=O)CC1 (racemic) [compound 2, Compound 2]	1.77 µM
Nc1nnc(SCc2ccc(O)c3ncccc23)s1 [compound 1, Compound 1]	0.18 µM
CC(C)(C)OC(=O)/N=C(\NC(=O)OC(C)(C)C)Nc1cc(Cl)ccn1 [compound 3, Compound 3]	5.3 µM
CC(C)(C)OC(=O)NC(=Nc1cc(CCC(=O)O)ccn1)NC(=O)OC(C)(C)C [compound 4, Compound 4]	1.29 µM
N=C(N)Nc1cccc2ncccc12 [compound 7, Compound 7]	6.93 µM
N=C(N)Nc1ccc2nn[nH]c2c1 [compound 8, Compound 8]	8.88 µM

The compounds below were run against T2, ICL (Pseudomonas aeruginosa, UniProt Q9I0K4) (assay: absorbance at […] nm, phenylhydrazine assay).
T2 construct: gene PA2634
T2 sequence (Q9I0K4 1-531): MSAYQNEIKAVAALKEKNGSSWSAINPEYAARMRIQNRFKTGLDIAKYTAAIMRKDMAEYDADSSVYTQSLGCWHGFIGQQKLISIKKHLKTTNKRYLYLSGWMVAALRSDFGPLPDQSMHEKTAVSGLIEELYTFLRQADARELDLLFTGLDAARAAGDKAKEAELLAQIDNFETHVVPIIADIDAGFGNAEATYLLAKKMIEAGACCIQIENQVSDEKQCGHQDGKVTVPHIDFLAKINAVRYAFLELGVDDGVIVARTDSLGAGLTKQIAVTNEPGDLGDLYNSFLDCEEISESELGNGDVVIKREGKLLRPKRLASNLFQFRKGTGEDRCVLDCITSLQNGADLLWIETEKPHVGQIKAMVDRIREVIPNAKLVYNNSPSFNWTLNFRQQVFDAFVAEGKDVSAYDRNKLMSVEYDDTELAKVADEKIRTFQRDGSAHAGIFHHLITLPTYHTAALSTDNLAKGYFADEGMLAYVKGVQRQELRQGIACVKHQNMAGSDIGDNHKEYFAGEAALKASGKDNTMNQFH
Type: biochemical

Structure (SMILES)	IC50
COc1ccccc1N1CCN(CCCNC(=O)C(Cc2ccc(F)c(F)c2)C(C)=O)CC1 (racemic) [compound 2, Compound 2]	0.24 µM
Nc1nnc(SCc2ccc(O)c3ncccc23)s1 [compound 1, Compound 1]	0.69 µM
CC(C)(C)OC(=O)/N=C(\NC(=O)OC(C)(C)C)Nc1cc(Cl)ccn1 [compound 3, Compound 3]	0.17 µM
CC(C)(C)OC(=O)NC(=Nc1cc(CCC(=O)O)ccn1)NC(=O)OC(C)(C)C [compound 4, Compound 4]	0.03 µM
N=C(N)Nc1cccc2ncccc12 [compound 7, Compound 7]	0.19 µM
N=C(N)Nc1ccc2nn[nH]c2c1 [compound 8, Compound 8]	0.37 µM

Source: article PMC3519852, “Non-Traditional Antibacterial Screening Approaches for the Identification of Novel Inhibitors of the Glyoxylate Shunt in Gram-Negative Pathogens” (PLoS ONE, 2012)
